Results published in patent EP2874643B1, “OSTEOPROTEGERIN DERIVED COMPOSITION AND USE THEREOF” (R-Pharm International, LLC, priority 2012, dated 2013).
Marks after values point to notes of the source that are not given here.

Experiments:
[1] = target: RANKL (receptor activator of NF-kappaB ligand); experiment: cell-based or functional assay
[2] = tested on: MDA-MB-468 human breast cancer cells; experiment: murine bone lytic model of human breast cancer (intratibial inoculation); conditions: 0.1 mg/kg, i.v.; for Mean X-Ray Score of Bone Lysis in Inoculated Tibiae: scale 0 (no lysis) to 4, enlarged muscle + 0.5
[3] = tested on: MDA-MB-468 human breast cancer cells; conditions: mouse, in vivo
[4] = MicroCT scan of inoculated tibia at termination, mean

Row | concentration that completely blocks RANKL-induced osteoclast differentiation (RAW264.7 cells) [1] | inhibition of RANKL-induced osteoclast differentiation (RAW264.7 cells), EC50 [1] | Compound | Survival (Number Alive/Total) ([2]; 3 times weekly for 6 weeks, end of study) | Mean X-Ray Score of Bone Lysis in Inoculated Tibiae ([2]; 6 weeks Post-Inoculation) | Mean X-Ray Score of Bone Lysis in Inoculated Tibiae ([2]; 8 weeks Post-Inoculation) | Structure Model Index (SMI) [2, 4] | Total Bone Volume (TBV) [2, 4] | Trabecular Bone Volume 3 (Tb.BV) [2, 4] | Trabecular Pattern Factor (Tb.Pf) [2, 4] | adverse clinical signs [3]
1 | 100 ng/mL | 0.05 µg/mL | hOPG-hIgG1-Fc polypeptide of SEQ ID NO. 1 (Fc fusion) | – | – | – | – | – | – | – | –
2 | – | – | O=P(O)(O)C(O)(Cn1ccnc1)P(=O)(O)O [Zometa, Zoledronic Acid] | 12/12 | 0.2 ^a | 0.5 ^a | 1.831 ^a | 6.799 ^a mm^3 | 0.614 ^a mm^3 | 10.458 ^a mm^--1 | No adverse clinical signs were observed
